Data published in article PMC5659129, “Determinants of the Inhibition of DprE1 and CYP2C9 by Antitubercular Thiophenes” (Angewandte Chemie (International Ed. in English), 2017).
Converted amounts (≈) assume the structure as drawn. Where two headings read alike, the source gives them in different places.

Columns and labels:
Mtb WT = experiment: microbe, parasite or virus in culture; assay type: cell-based, Mycobacterium tuberculosis; details: for MIC: Mycobacterium tuberculosis, 168 h
CYP2C9 [1] = target: T1, CYP2C9 (Homo sapiens, UniProt P11712); details: for IC50 ratio (CYP2C9 over DprE1): selectivity
T1 sequence (P11712 whole entry): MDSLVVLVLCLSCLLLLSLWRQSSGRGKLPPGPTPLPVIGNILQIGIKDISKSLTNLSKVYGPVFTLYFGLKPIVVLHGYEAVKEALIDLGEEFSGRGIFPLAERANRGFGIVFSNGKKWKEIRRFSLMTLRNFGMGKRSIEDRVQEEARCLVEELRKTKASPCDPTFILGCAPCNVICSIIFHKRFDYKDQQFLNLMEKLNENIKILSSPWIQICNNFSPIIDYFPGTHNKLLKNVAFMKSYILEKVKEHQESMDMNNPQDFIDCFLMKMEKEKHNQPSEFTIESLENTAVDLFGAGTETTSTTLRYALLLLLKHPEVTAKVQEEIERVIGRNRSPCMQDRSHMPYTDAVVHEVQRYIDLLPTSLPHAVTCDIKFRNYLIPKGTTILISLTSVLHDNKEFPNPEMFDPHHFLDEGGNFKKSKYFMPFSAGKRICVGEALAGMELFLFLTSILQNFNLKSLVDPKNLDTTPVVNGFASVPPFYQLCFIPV

CYP2C9 [2] = target: T1, CYP2C9; experiment: in vitro; details: microsomes, pH 7.4
M. smegmatis DprE1 WT = M. smegmatis DprE1 WT (Mycolicibacterium smegmatis, UniProt A0R607); experiment: biochemical
Sequence of M. smegmatis DprE1 WT (A0R607 whole entry): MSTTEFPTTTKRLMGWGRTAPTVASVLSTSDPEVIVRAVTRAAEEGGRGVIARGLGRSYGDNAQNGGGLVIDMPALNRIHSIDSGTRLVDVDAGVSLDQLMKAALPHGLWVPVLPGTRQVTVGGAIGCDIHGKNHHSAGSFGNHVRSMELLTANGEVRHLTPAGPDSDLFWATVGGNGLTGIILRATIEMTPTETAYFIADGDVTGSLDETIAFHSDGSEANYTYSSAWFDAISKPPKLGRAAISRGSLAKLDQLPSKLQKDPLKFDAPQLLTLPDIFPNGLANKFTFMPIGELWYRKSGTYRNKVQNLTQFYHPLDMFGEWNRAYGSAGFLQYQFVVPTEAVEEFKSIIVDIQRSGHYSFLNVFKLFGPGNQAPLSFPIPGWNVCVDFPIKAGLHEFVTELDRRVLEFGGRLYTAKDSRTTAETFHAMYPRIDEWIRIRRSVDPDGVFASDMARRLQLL

CYP2C9 [3] = target: T1, CYP2C9; experiment: biochemical
Mtb Erdman [4] = assay type: in vivo, BALB/c mouse; details: 3 weeks, acute phase
Mtb Erdman [5] = assay type: in vivo, BALB/c mouse; details: 200 mg kg−1, oral, 4 weeks, chronic phase
CYP1A2 = CYP1A2 (Homo sapiens, UniProt P05177); details: microsomes
Sequence of CYP1A2 (P05177 whole entry): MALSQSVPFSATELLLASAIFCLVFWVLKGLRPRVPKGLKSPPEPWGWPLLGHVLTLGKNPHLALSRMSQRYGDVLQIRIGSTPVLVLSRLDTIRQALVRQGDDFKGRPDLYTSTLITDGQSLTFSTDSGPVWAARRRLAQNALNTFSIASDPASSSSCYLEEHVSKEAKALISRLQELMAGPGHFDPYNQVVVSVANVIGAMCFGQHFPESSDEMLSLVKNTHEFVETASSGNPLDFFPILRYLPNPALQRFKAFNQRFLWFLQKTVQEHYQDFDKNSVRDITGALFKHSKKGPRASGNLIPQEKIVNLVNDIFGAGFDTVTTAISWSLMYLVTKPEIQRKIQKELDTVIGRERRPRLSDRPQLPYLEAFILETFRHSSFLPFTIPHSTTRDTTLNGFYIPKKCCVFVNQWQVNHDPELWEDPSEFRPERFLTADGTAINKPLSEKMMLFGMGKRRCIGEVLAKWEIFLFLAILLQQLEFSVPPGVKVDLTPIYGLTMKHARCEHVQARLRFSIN

CYP3A4 = CYP3A4 (Homo sapiens, UniProt P08684); details: microsomes
Sequence of CYP3A4 (P08684 whole entry): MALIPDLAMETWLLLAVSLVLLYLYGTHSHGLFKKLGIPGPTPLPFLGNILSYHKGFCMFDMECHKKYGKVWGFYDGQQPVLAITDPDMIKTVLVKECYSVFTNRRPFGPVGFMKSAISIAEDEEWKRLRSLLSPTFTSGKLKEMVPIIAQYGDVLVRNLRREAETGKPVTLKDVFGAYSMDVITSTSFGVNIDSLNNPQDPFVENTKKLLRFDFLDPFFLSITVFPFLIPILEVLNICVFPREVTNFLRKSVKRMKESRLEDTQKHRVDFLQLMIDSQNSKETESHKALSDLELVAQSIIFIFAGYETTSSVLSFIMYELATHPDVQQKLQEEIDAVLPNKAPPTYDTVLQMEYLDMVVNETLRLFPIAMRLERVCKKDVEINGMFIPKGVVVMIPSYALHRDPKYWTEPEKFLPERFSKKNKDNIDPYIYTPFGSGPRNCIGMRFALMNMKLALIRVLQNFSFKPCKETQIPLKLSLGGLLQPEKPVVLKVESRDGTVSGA

CYP2D6 = CYP2D6 (Homo sapiens, UniProt P10635); details: microsomes
Sequence of CYP2D6 (P10635 whole entry): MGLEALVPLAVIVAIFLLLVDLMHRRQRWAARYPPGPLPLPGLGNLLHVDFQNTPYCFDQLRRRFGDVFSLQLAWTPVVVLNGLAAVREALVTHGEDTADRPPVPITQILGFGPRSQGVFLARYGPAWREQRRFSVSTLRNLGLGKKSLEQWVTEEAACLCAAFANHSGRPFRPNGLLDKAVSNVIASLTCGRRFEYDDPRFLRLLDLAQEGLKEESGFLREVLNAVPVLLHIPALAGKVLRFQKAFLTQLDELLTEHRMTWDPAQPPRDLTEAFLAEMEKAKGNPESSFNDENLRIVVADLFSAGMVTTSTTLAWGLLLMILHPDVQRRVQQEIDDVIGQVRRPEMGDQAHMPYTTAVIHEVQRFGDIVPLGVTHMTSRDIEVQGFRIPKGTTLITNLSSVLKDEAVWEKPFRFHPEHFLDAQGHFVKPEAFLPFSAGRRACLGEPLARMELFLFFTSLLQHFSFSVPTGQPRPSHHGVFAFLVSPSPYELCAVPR

CYP2C19 = CYP2C19 (Homo sapiens, UniProt P33261); details: microsomes
Sequence of CYP2C19 (P33261 whole entry): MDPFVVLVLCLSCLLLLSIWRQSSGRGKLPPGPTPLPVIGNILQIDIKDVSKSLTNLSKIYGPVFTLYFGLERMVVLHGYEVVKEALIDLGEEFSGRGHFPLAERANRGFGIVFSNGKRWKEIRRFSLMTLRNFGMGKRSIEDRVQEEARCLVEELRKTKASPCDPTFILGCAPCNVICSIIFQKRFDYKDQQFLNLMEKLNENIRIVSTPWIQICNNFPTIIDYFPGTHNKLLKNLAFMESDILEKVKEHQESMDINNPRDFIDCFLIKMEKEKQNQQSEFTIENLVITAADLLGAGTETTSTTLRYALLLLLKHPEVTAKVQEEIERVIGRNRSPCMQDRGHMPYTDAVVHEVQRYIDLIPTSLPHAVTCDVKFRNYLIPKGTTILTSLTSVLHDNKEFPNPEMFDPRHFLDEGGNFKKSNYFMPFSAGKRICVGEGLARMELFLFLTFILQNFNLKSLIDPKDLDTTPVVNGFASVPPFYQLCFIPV

hERG potassium channel = hERG potassium channel (Homo sapiens, UniProt Q12809); experiment: cell-based
Sequence of hERG potassium channel (Q12809 whole entry): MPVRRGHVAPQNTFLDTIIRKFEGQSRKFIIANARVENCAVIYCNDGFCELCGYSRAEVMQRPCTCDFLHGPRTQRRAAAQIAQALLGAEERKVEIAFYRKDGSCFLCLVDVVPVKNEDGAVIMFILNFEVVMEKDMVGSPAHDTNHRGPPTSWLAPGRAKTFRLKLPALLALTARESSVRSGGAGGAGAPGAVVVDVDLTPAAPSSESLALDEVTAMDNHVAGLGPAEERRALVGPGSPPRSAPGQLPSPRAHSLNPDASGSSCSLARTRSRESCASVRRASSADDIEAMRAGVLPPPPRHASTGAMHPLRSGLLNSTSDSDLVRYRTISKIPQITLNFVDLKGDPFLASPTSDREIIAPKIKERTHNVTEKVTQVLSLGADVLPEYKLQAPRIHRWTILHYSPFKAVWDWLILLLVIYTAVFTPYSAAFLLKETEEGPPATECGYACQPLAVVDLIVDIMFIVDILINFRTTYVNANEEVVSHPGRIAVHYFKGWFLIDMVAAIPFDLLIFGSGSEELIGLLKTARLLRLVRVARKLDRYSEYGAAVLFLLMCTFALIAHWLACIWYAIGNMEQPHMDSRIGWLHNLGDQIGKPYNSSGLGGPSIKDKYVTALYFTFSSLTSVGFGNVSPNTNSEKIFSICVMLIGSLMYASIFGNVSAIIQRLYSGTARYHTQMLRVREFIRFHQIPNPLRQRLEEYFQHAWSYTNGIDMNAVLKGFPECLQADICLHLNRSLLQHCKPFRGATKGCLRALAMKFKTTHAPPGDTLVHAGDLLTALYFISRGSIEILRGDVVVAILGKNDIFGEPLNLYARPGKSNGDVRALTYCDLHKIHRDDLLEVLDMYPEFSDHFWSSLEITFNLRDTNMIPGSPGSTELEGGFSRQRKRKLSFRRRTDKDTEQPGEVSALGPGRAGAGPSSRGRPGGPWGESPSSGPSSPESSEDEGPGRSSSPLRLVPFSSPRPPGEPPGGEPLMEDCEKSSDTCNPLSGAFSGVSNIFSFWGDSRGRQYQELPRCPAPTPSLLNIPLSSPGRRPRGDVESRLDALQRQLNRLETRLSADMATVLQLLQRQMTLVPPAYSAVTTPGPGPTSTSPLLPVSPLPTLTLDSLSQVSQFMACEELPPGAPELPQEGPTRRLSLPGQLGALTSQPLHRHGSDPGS

[6] = Mini-Ames mutagenicity test
HepG2 cell line = experiment: In vitro cytotoxicity assay, HepG2; details: up to a concentration of 100 μM
Vero cell line = experiment: In vitro cytotoxicity assay (MTT), Vero; details: up to a concentration of 100 μM
Procedure: In vitro cytotoxicity assay. Vero epithelial cells (from African green monkey; ATCC
CCL-81) were cultured in Dulbecco’s modified Eagle’s medium (DMEM) supplemented
with 10% fetal bovine serum (FBS) and maintained in a humidified incubator (37°C in
5% CO2). Cells were dislodged with a cell scraper, collected by centrifugation,
resuspended in fresh medium at 10^6 cells/ml, dispensed into 96-well microtiter plates
(100 ml/well), and incubated for 18 h at 37°C. Two-fold serial dilutions of test
compounds in DMEM with FBS were subsequently added, and cells were incubated for
another 72 h. In triplicate studies, the cytopathic effects of compounds were evaluated
colorimetrically by using the 3-(4, 5- dimethyl-2-thiazolyl)-2, 5-diphenyl-2H-tetrazolium
bromide (MTT) cell proliferation assay (ATCC).

[7] = MABA, 7 days, 90% reduction in fluorescence

In the case of `O=C(Nc1sccc1C(=O)Nc1ncccn1)c1nc2cnccc2s1` [TCA020], the “MIC WT” value (Mtb WT; [7]) is reported as 2.5 ± 0.48 µM (≈ 0.956 µg/mL) and the MIC (Mtb WT; [7]) is reported as 2.5 µM (≈ 0.956 µg/mL).
With `CCOC(=O)NC(=O)c1ccsc1NC(=O)c1ccn2cnnc2c1` [TCA582] the “IC50 ratio (CYP2C9 over DprE1)” value (CYP2C9 [1]) was 33 and the IC50 (CYP2C9 [2]) was 1.83 µM.
For `Cc1ccnc(NC(=O)c2ccsc2NC(=O)c2ccn3cnnc3c2)n1` [TCA711], the IC50 (M. smegmatis DprE1 WT; Figure 4D, read-out: DprE1 IC50) was 0.03 µM, the “IC50 ratio (CYP2C9 over DprE1)” value (CYP2C9 [1]) was 1515 and the IC50 (CYP2C9 [3]) was > 50 µM.
With `CCOC(=O)NC(=O)c1ccsc1NC(=O)c1nc2cnccc2s1` [TCA007] the MIC (Mtb WT; [7]) was 0.089 ± 0.0066 µM (≈ 0.0335 µg/mL), the “reduction of bacterial load in lung” value (Mtb Erdman [4]; 50 mg kg−1, oral) was 1.7 log10 CFU and the “reduction of bacterial load in lung” value (Mtb Erdman [4]; 100 mg kg−1, oral) was 2.3 log10 CFU. The “reduction of CFU in mouse lungs” value (Mtb Erdman [5]) was > 1.7 log10 CFU, the “inhibitory effect for CYP2C9” value (CYP2C9 [1]; microsomes) was “strong inhibitory effect” and the “inhibition of CYP1A2” value (CYP1A2) was “no inhibition”. For the same compound, the “inhibition of CYP3A4” value (CYP3A4) was “no inhibition”, the “inhibition of CYP2D6” value (CYP2D6) was “no inhibition” and the “inhibition of CYP2C19” value (CYP2C19) was “no inhibition”. For the same compound, the IC50 (hERG potassium channel) was > 30 µM, the genetic toxicity [6] was “no genetic toxicity” and the “cytotoxicity against HepG2” value (HepG2 cell line) was “not cytotoxic”. For the same compound, the “cytotoxicity against Vero” value (Vero cell line) was “not cytotoxic”.
With `CCOC(=O)NC(=O)c1ccsc1NC(=O)c1nc2ccccc2s1` [TCA1] the MIC (Mtb WT; [7]) was 0.23 ± 0.012 µM (≈ 0.0863 µg/mL).
With `Cc1ccnc(NC(=O)c2ccsc2NC(=O)c2nc3cnccc3s2)n1` [TCA787] the IC50 (M. smegmatis DprE1 WT; M. smegmatis DprE1, Table 1, read-out: IC50 DprE1 WT) was 0.096 ± 0.038 µM and the MIC (Mtb WT; [7]) was 0.44 ± 0.12 µM (≈ 0.174 µg/mL).
With `CCOC(=O)NC(=O)c1cc(F)sc1NC(=O)c1nc2ccccc2s1` [TCA481] the “more potent than TCA1 based on MIC” value (Mtb WT; MIC relative to TCA1) was 5 fold and the MIC (Mtb WT; [7]) was 0.046 ± 0.0025 µM (≈ 0.0181 µg/mL).
